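Grown in 96-well plates, cells were treated for 48 hours with each compound at five concentrations. Insufficient inhibition: endpoint recorded as highest concentration tested. TGI: concentration producing complete growth inhibition.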
Tests used:
Assay in all cases: NCI tumour cell line growth inhibition, 48 h
NCI-H522 lung = system: NCI-H522 lung
CAKI-1 renal = system: CAKI-1 renal
HCT-15 colon = system: HCT-15 colon
SF-295 CNS = system: SF-295 CNS
EKVX NSCLC = system: EKVX NSCLC
786-0 renal = system: 786-0 renal
SK-MEL-2 melanoma = system: SK-MEL-2 melanoma
XF 498 CNS = system: XF 498 CNS
HCT-116 colon = system: HCT-116 colon
OVCAR-8 ovarian = system: OVCAR-8 ovarian
M14 melanoma = system: M14 melanoma
SF-539 CNS = system: SF-539 CNS
SNB-75 CNS = system: SNB-75 CNS
SNB-78 CNS = system: SNB-78 CNS
OVCAR-4 ovarian = system: OVCAR-4 ovarian
UO-31 renal = system: UO-31 renal
M19-MEL melanoma = system: M19-MEL melanoma
NCI-H23 lung = system: NCI-H23 lung
K-562 leukemia = system: K-562 leukemia
MOLT-4 leukemia = system: MOLT-4 leukemia
MALME-3M melanoma = system: MALME-3M melanoma
SF-268 CNS = system: SF-268 CNS
CCRF-CEM leukemia = system: CCRF-CEM leukemia
NCI-H460 lung = system: NCI-H460 lung
RPMI-8226 leukemia = system: RPMI-8226 leukemia
TK-10 renal = system: TK-10 renal
LOX IMVI melanoma = system: LOX IMVI melanoma
OVCAR-5 ovarian = system: OVCAR-5 ovarian
HT29 colon = system: HT29 colon
HOP-62 NSCLC = system: HOP-62 NSCLC
HCC-2998 colon = system: HCC-2998 colon
SR leukemia = system: SR leukemia
RXF-631 renal = system: RXF-631 renal
ACHN renal = system: ACHN renal
UACC-62 melanoma = system: UACC-62 melanoma
UACC-257 melanoma = system: UACC-257 melanoma
HOP-92 NSCLC = system: HOP-92 NSCLC
DMS 273 small cell lung = system: DMS 273 small cell lung
SK-MEL-5 melanoma = system: SK-MEL-5 melanoma
KM12 colon = system: KM12 colon
RXF 393 renal = system: RXF 393 renal
SW-620 colon = system: SW-620 colon
SNB-19 CNS = system: SNB-19 CNS
SK-MEL-28 melanoma = system: SK-MEL-28 melanoma
U251 CNS = system: U251 CNS
DLD-1 colon = system: DLD-1 colon
A498 renal = system: A498 renal
LXFL 529 NSCLC = system: LXFL 529 NSCLC
IGROV1 ovarian = system: IGROV1 ovarian
HL-60(TB) leukemia = system: HL-60(TB) leukemia
A549 NSCLC = system: A549 NSCLC
KM20L2 colon = system: KM20L2 colon
DMS 114 small cell lung = system: DMS 114 small cell lung
HOP-18 NSCLC = system: HOP-18 NSCLC
SN12C renal = system: SN12C renal
SK-OV-3 ovarian = system: SK-OV-3 ovarian
COLO 205 colon = system: COLO 205 colon
OVCAR-3 ovarian = system: OVCAR-3 ovarian

## CCCCCCCCCCNC(=S)OCCCC
NCI-H522 lung
  TGI: 42.4 µM
CAKI-1 renal
  TGI: 61.1 µM
HCT-15 colon
  TGI: 39.7 µM
SF-295 CNS
  TGI: > 100 µM
EKVX NSCLC
  TGI: 65.8 µM
786-0 renal
  TGI: 76.3 µM
SK-MEL-2 melanoma
  TGI: 27.7 µM
XF 498 CNS
  TGI: 39.8 µM
HCT-116 colon
  TGI: 34.7 µM
OVCAR-8 ovarian
  TGI: > 100 µM
M14 melanoma
  TGI: 52.4 µM
SF-539 CNS
  TGI: 48.3 µM
SNB-75 CNS
  TGI: 86.7 µM
SNB-78 CNS
  TGI: 88.4 µM
OVCAR-4 ovarian
  TGI: > 100 µM
UO-31 renal
  TGI: 60.3 µM
M19-MEL melanoma
  TGI: > 100 µM
NCI-H23 lung
  TGI: 53.9 µM
K-562 leukemia
  TGI: 36.6 µM
MOLT-4 leukemia
  TGI: 32.6 µM
MALME-3M melanoma
  TGI: 54.8 µM
SF-268 CNS
  TGI: 58.7 µM
CCRF-CEM leukemia
  TGI: 37.6 µM
NCI-H460 lung
  TGI: 43.5 µM
RPMI-8226 leukemia
  TGI: 34.9 µM
TK-10 renal
  TGI: 45 µM
LOX IMVI melanoma
  TGI: 29.8 µM
OVCAR-5 ovarian
  TGI: 29 µM
HT29 colon
  TGI: 37.4 µM
HOP-62 NSCLC
  TGI: 68.7 µM
HCC-2998 colon
  TGI: 57 µM
SR leukemia
  TGI: 38 µM
RXF-631 renal
  TGI: 87.1 µM
ACHN renal
  TGI: 69.3 µM
UACC-62 melanoma
  TGI: 53.1 µM
UACC-257 melanoma
  TGI: 49.3 µM
HOP-92 NSCLC
  TGI: 41.1 µM
DMS 273 small cell lung
  TGI: 42.3 µM
SK-MEL-5 melanoma
  TGI: 33.3 µM
KM12 colon
  TGI: 29.9 µM
RXF 393 renal
  TGI: 59.5 µM
SW-620 colon
  TGI: 35.2 µM
SNB-19 CNS
  TGI: > 100 µM
SK-MEL-28 melanoma
  TGI: 72.2 µM
U251 CNS
  TGI: 37.5 µM
DLD-1 colon
  TGI: 85.4 µM
A498 renal
  TGI: 62.6 µM
LXFL 529 NSCLC
  TGI: 55.6 µM
IGROV1 ovarian
  TGI: 87.3 µM
HL-60(TB) leukemia
  TGI: 31.2 µM
A549 NSCLC
  TGI: 73.6 µM
KM20L2 colon
  TGI: 37.7 µM
DMS 114 small cell lung
  TGI: 45.8 µM
HOP-18 NSCLC
  TGI: 81.5 µM
SN12C renal
  TGI: 38.2 µM
SK-OV-3 ovarian
  TGI: 77.3 µM

## CCCCCCCCCCCCCC(=O)OC1C(CO)OC(=O)C1O (stereo not given)
COLO 205 colon
  TGI: > 100 µM
CAKI-1 renal
  TGI: > 100 µM
HCT-15 colon
  TGI: > 100 µM
SF-295 CNS
  TGI: > 100 µM
EKVX NSCLC
  TGI: > 100 µM
786-0 renal
  TGI: > 100 µM
SK-MEL-2 melanoma
  TGI: > 100 µM
XF 498 CNS
  TGI: > 100 µM
HCT-116 colon
  TGI: > 100 µM
OVCAR-8 ovarian
  TGI: > 100 µM
M14 melanoma
  TGI: > 100 µM
SF-539 CNS
  TGI: > 100 µM
SNB-75 CNS
  TGI: > 100 µM
SNB-78 CNS
  TGI: > 100 µM
OVCAR-4 ovarian
  TGI: > 100 µM
UO-31 renal
  TGI: > 100 µM
M19-MEL melanoma
  TGI: > 100 µM
NCI-H23 lung
  TGI: > 100 µM
K-562 leukemia
  TGI: > 100 µM
MOLT-4 leukemia
  TGI: > 100 µM
MALME-3M melanoma
  TGI: > 100 µM
SF-268 CNS
  TGI: > 100 µM
CCRF-CEM leukemia
  TGI: > 100 µM
NCI-H460 lung
  TGI: > 100 µM
RPMI-8226 leukemia
  TGI: > 100 µM
TK-10 renal
  TGI: > 100 µM
LOX IMVI melanoma
  TGI: > 100 µM
OVCAR-5 ovarian
  TGI: > 100 µM
HT29 colon
  TGI: > 100 µM
HOP-62 NSCLC
  TGI: > 100 µM
HCC-2998 colon
  TGI: > 100 µM
ACHN renal
  TGI: > 100 µM
UACC-62 melanoma
  TGI: > 100 µM
UACC-257 melanoma
  TGI: > 100 µM
HOP-92 NSCLC
  TGI: 95.9 µM
DMS 273 small cell lung
  TGI: > 100 µM
SK-MEL-5 melanoma
  TGI: > 100 µM
KM12 colon
  TGI: > 100 µM
RXF 393 renal
  TGI: > 100 µM
SW-620 colon
  TGI: > 100 µM
SNB-19 CNS
  TGI: > 100 µM
U251 CNS
  TGI: > 100 µM
DLD-1 colon
  TGI: > 100 µM
A498 renal
  TGI: > 100 µM
LXFL 529 NSCLC
  TGI: > 100 µM
IGROV1 ovarian
  TGI: > 100 µM
HL-60(TB) leukemia
  TGI: > 100 µM
A549 NSCLC
  TGI: > 100 µM
OVCAR-3 ovarian
  TGI: > 100 µM
KM20L2 colon
  TGI: > 100 µM
DMS 114 small cell lung
  TGI: > 100 µM
HOP-18 NSCLC
  TGI: > 100 µM
SN12C renal
  TGI: > 100 µM
SK-OV-3 ovarian
  TGI: > 100 µM

Reference: PubChem BioAssay (NCI)
